Assay results reported in patent US20090117599A1, “METHOD OF DETECTING SUGAR CHAINS HAVING GlcNAc TRANSFERRED BY GnT-V” (priority 2005, published 2009).

Columns and labels:
[1] = biological target: Boletopsis leucomelas lectin (BLL); experiment: Frontal affinity chromatography (FAC) on immobilized BLL lectin column; assay type: binding; details: for affinity of BLL for pNP glycosides (in words): pNP-sugar chain 5 μM, FIG. 3(A) right
Protocol: (§1) It is preferable to use the frontal affinity chromatography (FAC) method for measuring the binding constant between lectin and sugar chain.
(§2) […] each of pyridylaminated sugar chains (PA-sugar chains) is continuously poured into two buffered lectin columns at a flow rate of 0.125 ml/min. The PA-sugar chain has been diluted to the concentration (2.5 nM) which is sufficiently lower than the dissociation constant (Kd) of a lectin in a buffer solution for analysis (10 mM Tris-HCl buffer solution (pH 7.4) containing 0.8% NaCl). Elution of the PA-sugar chain from the column is detected with use of a fluorescence detector (with exciting wavelength/fluorescence wavelength: 310 nm/380 nm).
(§3) Then, the binding constant (Ka) between the sugar chain and the lectin is determined from V-V0 and Bt based on the FAC reference equation.
(§4) BLL was dissolved in 0.2M NaHCO3 buffer solution (pH 8.3) containing 0.5M NaCl, and bound with NHS-activated Sepharose (GE Healthcare Bioscience, Uppsala, Sweden) according to the operation manual of the manufacturer. The lectin-Sepharose was suspended in 10 mM Tris-HCl buffer solution (pH 7.4, TBS buffer solution) containing 0.8% NaCl, and filled in a miniature column (+2 mm×10 mm, 31.4 μl). A GSL-II lectin column was prepared in a similar manner.
(§5) A frontal affinity chromatography was carried out with use of an FAC automated analysis system (FAC-1, Shimadzu Corporation). More specifically, the lectin column prepared as described above was inserted in a stainless holder and connected to the FAC-1 system.
(§6) The flow rate and column temperature were kept at 0.125 ml/min and 25 °C, respectively. […]
(§7) Eluates of pNP-sugar chain and PA-sugar chain were monitored by measuring UV (280 nm) and fluorescence (with the exciting wavelength 310 nm and the fluorescence wave length 380 nm). A front end eluate (i.e., V-V0) was measured with respect to a standard oligosaccharide (PA-lactose). In addition, the dissociation constant (Kd) was determined from V-V0 and Bt based on the FAC reference equation. Note that the binding constant Ka is determined by the equation Ka=1/Kd.
(§8) Analysis of the concentration dependency was carried out to measure the effective ligand concentration Bt. […] Next, V-V0 (the delay of the eluted front end) was calculated in accordance with the method developed by Arata (“Application of reinforced frontal affinity chromatography and advanced processing procedure to the study of the binding property of a Caenorhabditis elegans galectin”, J Chromatogr A. 905, 337-43). A Hofstee-type plot ((V-V0) vs. (V-V0) [A]0) was created, and Bt and Kd were respectively determined from the intercept and the slope of the approximate curve. […]

[2] = biological target: Griffonia simplicifolia lectin II (GSL-II) (Griffonia simplicifolia, UniProt Q41263); experiment: Frontal affinity chromatography (FAC) on immobilized GSL-II lectin column; assay type: binding; details: for affinity of GSL-II for pNP glycosides (in words): pNP-sugar chain 5 μM, FIG. 3(A) left
Protocol: as §1, §2, §3, §4, §5, §6, §7, §8

Chain of Griffonia simplicifolia lectin II (GSL-II) (Q41263 entry or part of it): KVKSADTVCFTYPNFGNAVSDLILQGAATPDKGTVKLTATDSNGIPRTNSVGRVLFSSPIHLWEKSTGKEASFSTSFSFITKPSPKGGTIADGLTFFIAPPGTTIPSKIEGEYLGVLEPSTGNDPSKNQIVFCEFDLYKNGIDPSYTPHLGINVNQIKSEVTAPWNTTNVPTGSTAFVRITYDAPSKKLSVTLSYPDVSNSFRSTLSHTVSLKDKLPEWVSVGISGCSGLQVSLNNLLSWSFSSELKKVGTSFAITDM

| SMILES | Ka ([1]; pNP derivatives (5 μM), FAC, 25 C, TBS pH 7.4) [M⁻¹] | affinity of BLL for pNP glycosides (in words) [1] | Kd [2] [µM] | affinity of GSL-II for pNP glycosides (in words) [2] | binding relative to that of the other anomer ([2]; GSL-II, pNP glycosides) |
| --- | --- | --- | --- | --- | --- |
| CC(=O)N[C@H]1[C@@H](Oc2ccc([N+](=O)[O-])cc2)O[C@H](CO)[C@H](O)[C@@H]1O[C@@H]1O[C@H](CO)[C@H](O)[C@H](O)[C@H]1O [Galβ1-3GalNAcα-pNP, Galβ1-3 GalNAcα-pNP] | 90000 | remarkable affinity |  |  |  |
| CC(=O)N[C@H]1[C@@H](Oc2ccc([N+](=O)[O-])cc2)O[C@H](CO)[C@@H](O)[C@@H]1O [GlcNAcα-pNP] |  | did not show remarkable affinity | 7.14 | strongest affinity |  |
| CC(=O)N[C@H]1[C@H](Oc2ccc([N+](=O)[O-])cc2)O[C@H](CO)[C@@H](O)[C@@H]1O [GlcNAcβ-pNP] |  | did not show remarkable affinity |  | remarkable affinity | 1/7 |
